Laboratory results as given in patent publication US12201621B2, “Base and pharmaceutical composition containing it” (BIOTTS S.A., priority 2019, dated 2025).
Structures can show the parent of a compound that is named as a salt. Where two headings read alike, the source gives them in different places. Each block holds one molecule with its values, some of them ahead of it.

Key:
[1] = cited from earlier work
[2] = in vivo; cited from earlier work
[3] = cited from earlier work; remark: listed apart in the source
[4] = in vivo; cited from earlier work; remark: listed apart in the source
[5] = pharmacokinetics and bioavailability after intravenous and topical administration; format: in vivo, Goetingen mini-pigs; conditions: intravenous administration at 1 mg/kg

SMILES: CCCCNc1ccc(C(=O)OCCN(C)C)cc1 [Tetracaine Hydrochloride]
- Water solubility [1]: 150 mg/mL

SMILES: CCN(CC)CC(=O)Nc1c(C)cccc1C [lidocaine, Lidocaine]
- absorbed from the gastrointestinal tract [2]: 30-40%
- excreted by the kidneys unchanged [2]: 10%
- extension of the effect ([3]; addition of epinephrine (5 μg/ml)): 50%
- duration of effect ([3]; aerosol): 5 to 6 min
- onset of effect ([3]; aerosol): 1 min
- duration of anti-arrhythmic effect ([3]; endotracheal administration): 30 to 50 min
- onset of anti-arrhythmic effect ([3]; endotracheal administration): 10 to 15 s
- time to peak anti-arrhythmic effect ([3]; endotracheal administration): 1 to 2 min
- duration of effect ([3]; epidural administration): up to 4 hours
- onset of effect ([3]; epidural administration): 5 to 15 min
- duration of effect ([3]; gel): 30 to 60 min
- onset of effect ([3]; gel): 2 to 3 min
- duration of anti-arrhythmic effect ([3]; i.v. administration): 10 to 20 min
- onset of anti-arrhythmic effect ([3]; i.v. administration): 45 to 90 s
- duration of effect ([3]; infiltration anesthesia): 30 to 60 min
- onset of effect ([3]; infiltration anesthesia): 0.5 to 1 min

- clearance (printed: purified) [5]: highly purified
- distribution (printed: dispersed) [5]: highly dispersed
SMILES: CCCCNc1ccc(C(=O)OCCN(C)C)cc1 [tetracaine, Tetracaine]
- hydrolysis in plasma [4]: rapid
